How the values were obtained:
[1] = biological target: Voltage-dependent L-type calcium channel subunit alpha-1C (Rattus norvegicus, UniProt P22002); format: functional
Adenosine receptor A1 = biological target: T1, Adenosine receptor A1 (Homo sapiens, UniProt P30542)
T1 sequence (P30542 whole entry): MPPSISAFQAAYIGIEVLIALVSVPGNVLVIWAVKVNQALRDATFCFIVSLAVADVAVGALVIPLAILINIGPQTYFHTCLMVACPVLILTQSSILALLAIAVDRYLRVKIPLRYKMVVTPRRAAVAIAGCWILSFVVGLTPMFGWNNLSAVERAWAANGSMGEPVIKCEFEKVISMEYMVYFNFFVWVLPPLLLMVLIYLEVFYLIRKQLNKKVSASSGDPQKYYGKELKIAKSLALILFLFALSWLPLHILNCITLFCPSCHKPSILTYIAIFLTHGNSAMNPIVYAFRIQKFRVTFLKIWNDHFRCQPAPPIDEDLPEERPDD

[2] = biological target: Sodium-dependent dopamine transporter (Homo sapiens, UniProt Q01959)
Vasopressin V2 receptor = Vasopressin V2 receptor (Homo sapiens, UniProt P30518)
[3] = biological target: 5-hydroxytryptamine receptor 2B (Homo sapiens, UniProt P41595); format: functional, cell-based
Motilin receptor = Motilin receptor (Homo sapiens, UniProt O43193)
Histamine H2 receptor = Histamine H2 receptor (Homo sapiens, UniProt P25021); format: functional, cell-based
[4] = biological target: cGMP-inhibited 3',5'-cyclic phosphodiesterase 3A (Homo sapiens, UniProt Q14432); format: functional
Endothelin-1 receptor = biological target: T2, Endothelin-1 receptor (Homo sapiens, UniProt P25101)
T2 sequence (P25101 whole entry): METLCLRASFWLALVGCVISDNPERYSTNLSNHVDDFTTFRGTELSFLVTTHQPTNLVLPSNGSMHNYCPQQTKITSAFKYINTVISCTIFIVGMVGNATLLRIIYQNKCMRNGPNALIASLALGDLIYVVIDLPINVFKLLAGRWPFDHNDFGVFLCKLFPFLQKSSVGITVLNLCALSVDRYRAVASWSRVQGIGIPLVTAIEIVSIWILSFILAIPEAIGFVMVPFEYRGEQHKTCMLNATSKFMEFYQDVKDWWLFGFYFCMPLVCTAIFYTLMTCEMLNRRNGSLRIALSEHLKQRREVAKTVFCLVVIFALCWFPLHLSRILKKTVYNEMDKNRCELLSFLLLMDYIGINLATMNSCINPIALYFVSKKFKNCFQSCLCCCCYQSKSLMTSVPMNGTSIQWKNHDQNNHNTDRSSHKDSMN

[5] = biological target: T3, Muscarinic acetylcholine receptor M2 (Homo sapiens, UniProt P08172); format: functional, cell-based
T3 sequence (P08172 whole entry): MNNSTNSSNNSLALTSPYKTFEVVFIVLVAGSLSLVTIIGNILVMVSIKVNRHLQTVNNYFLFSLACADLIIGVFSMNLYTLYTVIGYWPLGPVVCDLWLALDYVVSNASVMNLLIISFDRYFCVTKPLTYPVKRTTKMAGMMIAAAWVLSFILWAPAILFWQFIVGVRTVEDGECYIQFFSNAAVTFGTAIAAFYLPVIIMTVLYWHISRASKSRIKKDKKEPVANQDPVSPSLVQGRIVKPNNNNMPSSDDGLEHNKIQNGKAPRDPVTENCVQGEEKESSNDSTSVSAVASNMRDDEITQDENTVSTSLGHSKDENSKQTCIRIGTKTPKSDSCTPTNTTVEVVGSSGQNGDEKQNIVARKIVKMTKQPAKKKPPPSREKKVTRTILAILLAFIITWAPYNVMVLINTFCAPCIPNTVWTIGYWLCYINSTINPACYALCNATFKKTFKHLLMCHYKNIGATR

[6] = biological target: Beta-2 adrenergic receptor (Homo sapiens, UniProt P07550)
[7] = biological target: T4, Gastrin/cholecystokinin type B receptor (Homo sapiens, UniProt P32239)
T4 sequence (P32239 whole entry): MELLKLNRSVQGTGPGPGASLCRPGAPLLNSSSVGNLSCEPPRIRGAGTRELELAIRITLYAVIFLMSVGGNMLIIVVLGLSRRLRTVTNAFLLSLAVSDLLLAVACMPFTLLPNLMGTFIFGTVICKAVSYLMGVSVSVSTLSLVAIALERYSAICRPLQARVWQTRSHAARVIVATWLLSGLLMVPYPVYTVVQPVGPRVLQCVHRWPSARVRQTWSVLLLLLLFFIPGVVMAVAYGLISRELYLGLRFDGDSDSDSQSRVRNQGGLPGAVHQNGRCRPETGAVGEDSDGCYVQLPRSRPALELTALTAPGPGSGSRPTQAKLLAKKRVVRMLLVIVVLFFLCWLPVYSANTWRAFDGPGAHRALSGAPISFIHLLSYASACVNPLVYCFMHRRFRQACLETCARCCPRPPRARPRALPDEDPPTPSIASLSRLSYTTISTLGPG

Vasopressin V1a receptor = Vasopressin V1a receptor (Homo sapiens, UniProt P37288)
[8] = biological target: T5, Alpha-1A adrenergic receptor (Homo sapiens, UniProt P35348); format: functional, cell-based
T5 sequence (P35348 whole entry): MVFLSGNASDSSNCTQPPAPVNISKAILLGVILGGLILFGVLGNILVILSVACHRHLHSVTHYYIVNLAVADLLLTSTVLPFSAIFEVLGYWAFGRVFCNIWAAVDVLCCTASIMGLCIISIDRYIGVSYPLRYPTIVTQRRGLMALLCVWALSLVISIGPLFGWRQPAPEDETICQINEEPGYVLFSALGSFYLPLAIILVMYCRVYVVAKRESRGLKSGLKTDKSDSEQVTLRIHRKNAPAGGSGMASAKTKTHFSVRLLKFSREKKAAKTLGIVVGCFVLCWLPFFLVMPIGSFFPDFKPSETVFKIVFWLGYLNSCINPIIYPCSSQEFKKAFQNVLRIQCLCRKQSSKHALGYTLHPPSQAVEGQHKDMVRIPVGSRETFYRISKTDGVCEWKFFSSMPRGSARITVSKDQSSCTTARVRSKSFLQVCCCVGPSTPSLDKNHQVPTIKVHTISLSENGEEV

Cannabinoid receptor 1 = Cannabinoid receptor 1 (Homo sapiens, UniProt P21554); format: functional, cell-based
Also: assay procedure not described here.

Sequence of Vasopressin V1a receptor (P37288 whole entry): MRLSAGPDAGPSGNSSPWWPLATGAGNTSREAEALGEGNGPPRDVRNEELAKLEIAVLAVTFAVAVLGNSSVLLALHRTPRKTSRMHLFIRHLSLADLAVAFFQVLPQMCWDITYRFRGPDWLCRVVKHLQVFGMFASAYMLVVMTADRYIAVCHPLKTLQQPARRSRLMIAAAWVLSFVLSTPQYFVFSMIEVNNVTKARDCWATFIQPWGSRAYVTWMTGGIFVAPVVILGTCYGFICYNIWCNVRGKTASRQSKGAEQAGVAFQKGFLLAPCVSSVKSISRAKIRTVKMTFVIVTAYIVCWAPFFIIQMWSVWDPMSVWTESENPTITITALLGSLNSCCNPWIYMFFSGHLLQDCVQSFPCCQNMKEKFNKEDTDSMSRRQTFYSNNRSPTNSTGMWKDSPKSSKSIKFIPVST
Sequence of Cannabinoid receptor 1 (P21554 whole entry): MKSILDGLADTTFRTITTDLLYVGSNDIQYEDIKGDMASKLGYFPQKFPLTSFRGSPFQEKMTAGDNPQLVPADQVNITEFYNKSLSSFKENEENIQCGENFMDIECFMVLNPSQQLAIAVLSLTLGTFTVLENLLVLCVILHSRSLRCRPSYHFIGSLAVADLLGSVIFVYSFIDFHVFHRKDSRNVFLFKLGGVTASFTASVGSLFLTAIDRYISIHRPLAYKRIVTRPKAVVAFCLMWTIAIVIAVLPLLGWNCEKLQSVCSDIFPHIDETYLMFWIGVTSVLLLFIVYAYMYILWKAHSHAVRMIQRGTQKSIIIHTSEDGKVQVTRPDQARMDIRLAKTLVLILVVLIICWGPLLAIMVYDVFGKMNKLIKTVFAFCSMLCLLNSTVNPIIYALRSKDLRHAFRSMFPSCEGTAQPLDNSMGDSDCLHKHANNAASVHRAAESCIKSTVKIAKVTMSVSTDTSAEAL
Sequence of 5-hydroxytryptamine receptor 2B (P41595 whole entry): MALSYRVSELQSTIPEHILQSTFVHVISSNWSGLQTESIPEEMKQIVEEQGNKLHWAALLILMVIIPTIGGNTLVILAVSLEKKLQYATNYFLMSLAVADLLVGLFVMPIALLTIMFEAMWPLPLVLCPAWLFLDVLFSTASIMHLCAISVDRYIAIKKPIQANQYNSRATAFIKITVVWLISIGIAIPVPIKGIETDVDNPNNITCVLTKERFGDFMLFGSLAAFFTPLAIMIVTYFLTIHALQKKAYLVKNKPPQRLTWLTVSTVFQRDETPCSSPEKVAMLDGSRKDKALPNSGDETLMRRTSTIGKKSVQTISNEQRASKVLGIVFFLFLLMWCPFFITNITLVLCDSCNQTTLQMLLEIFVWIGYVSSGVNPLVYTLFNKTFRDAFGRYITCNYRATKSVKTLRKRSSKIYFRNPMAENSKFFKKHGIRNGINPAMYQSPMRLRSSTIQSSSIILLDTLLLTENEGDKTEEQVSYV
Sequence of Histamine H2 receptor (P25021 whole entry): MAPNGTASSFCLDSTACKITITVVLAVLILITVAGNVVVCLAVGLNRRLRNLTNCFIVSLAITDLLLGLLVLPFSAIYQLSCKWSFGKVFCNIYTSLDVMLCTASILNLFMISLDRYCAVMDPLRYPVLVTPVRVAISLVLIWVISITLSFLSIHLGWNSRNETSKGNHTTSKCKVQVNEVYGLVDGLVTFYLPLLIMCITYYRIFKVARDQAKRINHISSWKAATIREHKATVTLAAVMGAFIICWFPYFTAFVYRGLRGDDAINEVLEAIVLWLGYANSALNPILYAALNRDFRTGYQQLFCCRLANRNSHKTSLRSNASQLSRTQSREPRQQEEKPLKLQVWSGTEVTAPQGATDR
Sequence of Motilin receptor (O43193 whole entry): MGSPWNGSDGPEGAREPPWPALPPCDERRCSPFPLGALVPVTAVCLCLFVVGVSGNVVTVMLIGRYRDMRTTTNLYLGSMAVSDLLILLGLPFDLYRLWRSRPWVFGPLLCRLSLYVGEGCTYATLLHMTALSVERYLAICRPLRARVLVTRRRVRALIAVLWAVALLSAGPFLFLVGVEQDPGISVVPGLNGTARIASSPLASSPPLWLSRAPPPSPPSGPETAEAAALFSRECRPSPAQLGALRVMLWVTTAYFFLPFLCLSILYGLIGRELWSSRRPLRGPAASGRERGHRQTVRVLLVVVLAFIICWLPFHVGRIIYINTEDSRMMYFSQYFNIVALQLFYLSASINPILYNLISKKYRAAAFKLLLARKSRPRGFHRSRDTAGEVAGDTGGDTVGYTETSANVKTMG
Sequence of cGMP-inhibited 3',5'-cyclic phosphodiesterase 3A (Q14432 whole entry): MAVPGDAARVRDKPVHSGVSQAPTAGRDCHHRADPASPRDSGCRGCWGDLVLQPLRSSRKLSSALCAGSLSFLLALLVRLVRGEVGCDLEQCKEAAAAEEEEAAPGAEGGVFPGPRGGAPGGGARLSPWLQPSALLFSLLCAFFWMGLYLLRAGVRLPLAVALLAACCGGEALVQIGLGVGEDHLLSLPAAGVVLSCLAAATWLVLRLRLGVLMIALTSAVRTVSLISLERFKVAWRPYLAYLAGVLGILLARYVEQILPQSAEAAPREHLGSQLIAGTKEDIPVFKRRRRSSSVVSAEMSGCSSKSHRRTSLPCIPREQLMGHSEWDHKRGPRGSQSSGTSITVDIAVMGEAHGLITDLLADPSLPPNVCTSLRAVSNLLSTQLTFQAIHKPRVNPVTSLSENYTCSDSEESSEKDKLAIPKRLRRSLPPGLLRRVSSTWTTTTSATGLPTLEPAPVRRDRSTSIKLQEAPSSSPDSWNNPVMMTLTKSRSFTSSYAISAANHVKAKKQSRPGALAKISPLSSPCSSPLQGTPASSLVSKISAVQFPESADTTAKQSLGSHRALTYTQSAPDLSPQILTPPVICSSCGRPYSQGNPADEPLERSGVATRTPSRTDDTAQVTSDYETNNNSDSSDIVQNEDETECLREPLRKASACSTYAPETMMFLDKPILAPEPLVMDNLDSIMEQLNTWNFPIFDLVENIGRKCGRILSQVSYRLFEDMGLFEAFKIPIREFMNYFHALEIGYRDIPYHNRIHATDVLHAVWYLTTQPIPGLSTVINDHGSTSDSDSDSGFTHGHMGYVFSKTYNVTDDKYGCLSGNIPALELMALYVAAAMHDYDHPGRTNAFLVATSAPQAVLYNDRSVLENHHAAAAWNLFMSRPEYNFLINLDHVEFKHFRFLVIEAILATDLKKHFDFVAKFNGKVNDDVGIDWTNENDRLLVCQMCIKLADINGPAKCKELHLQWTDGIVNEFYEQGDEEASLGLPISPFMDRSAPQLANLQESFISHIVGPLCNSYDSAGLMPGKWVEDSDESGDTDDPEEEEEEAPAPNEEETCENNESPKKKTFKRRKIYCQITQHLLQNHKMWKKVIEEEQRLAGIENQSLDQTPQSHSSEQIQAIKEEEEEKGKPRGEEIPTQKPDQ
Sequence of Beta-2 adrenergic receptor (P07550 whole entry): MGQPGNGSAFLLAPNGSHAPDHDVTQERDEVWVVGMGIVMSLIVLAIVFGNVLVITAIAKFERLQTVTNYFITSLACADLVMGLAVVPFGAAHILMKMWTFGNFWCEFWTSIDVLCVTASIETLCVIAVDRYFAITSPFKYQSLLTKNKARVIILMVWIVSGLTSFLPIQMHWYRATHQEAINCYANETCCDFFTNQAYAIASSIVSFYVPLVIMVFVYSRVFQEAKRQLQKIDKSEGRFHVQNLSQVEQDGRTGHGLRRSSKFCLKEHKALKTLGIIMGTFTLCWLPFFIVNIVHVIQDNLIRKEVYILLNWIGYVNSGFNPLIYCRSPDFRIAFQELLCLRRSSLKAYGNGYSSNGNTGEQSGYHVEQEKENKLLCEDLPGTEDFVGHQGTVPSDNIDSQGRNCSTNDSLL
Sequence of Vasopressin V2 receptor (P30518 whole entry): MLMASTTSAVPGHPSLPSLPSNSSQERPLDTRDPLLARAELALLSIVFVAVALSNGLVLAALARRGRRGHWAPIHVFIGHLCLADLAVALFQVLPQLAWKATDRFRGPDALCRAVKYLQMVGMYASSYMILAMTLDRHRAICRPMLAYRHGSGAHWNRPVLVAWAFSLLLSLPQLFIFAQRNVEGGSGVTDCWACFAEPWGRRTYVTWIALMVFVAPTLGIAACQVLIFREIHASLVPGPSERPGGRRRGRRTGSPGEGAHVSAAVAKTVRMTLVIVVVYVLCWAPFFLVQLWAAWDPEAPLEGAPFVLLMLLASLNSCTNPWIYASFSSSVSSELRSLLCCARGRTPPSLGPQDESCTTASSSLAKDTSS
Sequence of Sodium-dependent dopamine transporter (Q01959 whole entry): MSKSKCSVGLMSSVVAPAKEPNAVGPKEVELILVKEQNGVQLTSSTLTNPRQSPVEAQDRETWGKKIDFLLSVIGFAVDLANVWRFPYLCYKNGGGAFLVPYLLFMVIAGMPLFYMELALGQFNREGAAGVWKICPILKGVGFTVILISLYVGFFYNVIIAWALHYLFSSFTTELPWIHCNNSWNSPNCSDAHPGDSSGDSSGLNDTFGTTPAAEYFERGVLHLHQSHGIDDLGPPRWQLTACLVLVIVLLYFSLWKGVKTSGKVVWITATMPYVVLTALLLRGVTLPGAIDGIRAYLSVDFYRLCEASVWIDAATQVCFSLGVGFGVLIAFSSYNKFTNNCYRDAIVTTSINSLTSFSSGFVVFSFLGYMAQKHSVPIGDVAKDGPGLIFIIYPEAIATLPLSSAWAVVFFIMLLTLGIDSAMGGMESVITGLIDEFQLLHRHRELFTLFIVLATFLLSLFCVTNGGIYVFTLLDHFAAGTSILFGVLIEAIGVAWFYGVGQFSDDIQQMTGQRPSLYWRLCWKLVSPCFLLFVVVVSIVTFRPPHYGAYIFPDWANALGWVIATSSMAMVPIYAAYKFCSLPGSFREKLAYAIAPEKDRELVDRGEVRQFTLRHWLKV

SMILES	AC50 [1]	AC50 (Adenosine receptor A1)	AC50 [2]	AC50 (Vasopressin V2 receptor)	AC50 [3]	AC50 (Motilin receptor)	AC50 (Histamine H2 receptor)	AC50 [4]	AC50 (Endothelin-1 receptor)	AC50 [5]	AC50 [6]	AC50 [7]	AC50 (Vasopressin V1a receptor)	AC50 [8]	AC50 (Cannabinoid receptor 1)
COc1ccc(/C=C/C(=O)Nc2ccccc2C(=O)O)cc1OC	> 30 µM	> 30 µM	> 30 µM	> 30 µM	> 30 µM	> 30 µM	> 30 µM	24 µM	> 30 µM	> 30 µM	> 30 µM	> 30 µM			
NCCCC(O)(P(=O)(O)O)P(=O)(O)O [ALENDRONIC ACID]	> 10 µM	> 30 µM		> 30 µM		> 10 µM	> 10 µM	1.09 µM	> 30 µM		> 10 µM	> 30 µM	> 10 µM		
Nc1ccc(C(=O)O)c(O)c1 [AMINOSALICYLIC ACID]		> 30 µM	> 30 µM	> 30 µM	> 30 µM	> 30 µM	> 30 µM	> 30 µM	> 30 µM	> 30 µM		> 30 µM		> 30 µM	> 30 µM
CS(=O)(=O)OCCCCOS(C)(=O)=O [BUSULFAN]		> 30 µM	> 30 µM	> 30 µM	> 30 µM	> 30 µM	> 30 µM	> 30 µM	> 30 µM	> 30 µM		> 30 µM		> 30 µM	> 30 µM
CCCCCCNC(=O)n1cc(F)c(=O)[nH]c1=O [CARMOFUR]	> 30 µM	> 30 µM	> 30 µM	> 30 µM	> 30 µM	> 30 µM	> 30 µM	> 30 µM	> 30 µM	> 30 µM	> 30 µM	> 30 µM			
CC(C)(C)NCC(O)c1cc(Cl)c(N)c(Cl)c1 (stereo unspecified) [CLENBUTEROL]	> 30 µM	> 30 µM	27.1 µM	> 30 µM	> 30 µM	> 30 µM	> 30 µM	> 30 µM	> 30 µM	> 30 µM		> 30 µM		> 30 µM	> 30 µM
COc1ccc(C(CN(C)C)C2(O)CCCCC2)cc1 (stereo unspecified) [VENLAFAXINE]		> 30 µM		> 30 µM		> 10 µM	> 30 µM	> 10 µM		> 10 µM	> 10 µM	> 30 µM		> 30 µM	

Now from value to compound:

AC50 [1]	AC50 (Adenosine receptor A1)	AC50 [2]	AC50 (Vasopressin V2 receptor)	AC50 [3]	AC50 (Motilin receptor)	AC50 (Histamine H2 receptor)	AC50 [4]	AC50 (Endothelin-1 receptor)	AC50 [5]	AC50 [6]	AC50 [7]	AC50 (Vasopressin V1a receptor)	AC50 [8]	AC50 (Cannabinoid receptor 1)	SMILES
> 30 µM	> 30 µM	17.7 µM	> 10 µM		> 30 µM	> 30 µM	> 30 µM	> 30 µM		> 30 µM	> 30 µM	3.6 µM			COc1cccc2c1C(=O)c1c(O)c3c(c(O)c1C2=O)C[C@@](O)(C(C)=O)C[C@@H]3O[C@H]1C[C@H](N)[C@H](O)[C@H](C)O1 [DAUNORUBICIN]
> 10 µM	> 30 µM	> 30 µM	> 30 µM	> 10 µM	> 10 µM	> 10 µM	11 µM		> 10 µM	> 30 µM	> 30 µM	> 30 µM	> 30 µM	> 30 µM	Nc1ccn([C@@H]2O[C@H](CO)[C@@H](O)C2(F)F)c(=O)n1 [GEMCITABINE]
	22 µM		> 30 µM		23 µM	24 µM	29 µM	> 30 µM			9.2 µM	7.7 µM	> 30 µM	9.3 µM	CC1(C)C(/C=C/C=C/C=C/C=C2\N(CCCCS(=O)(=O)O)c3ccc4ccccc4c3C2(C)C)=[N+](CCCCS(=O)(=O)[O-])c2ccc3ccccc3c21 [INDOCYANINE GREEN ACID FORM]
	> 30 µM	> 30 µM	> 30 µM	> 30 µM	> 30 µM	> 30 µM	> 30 µM	> 30 µM	> 30 µM		> 30 µM		> 30 µM	> 30 µM	CCn1cc(C(=O)O)c(=O)c2cc(F)c(N3CCN(C)CC3)cc21 [PEFLOXACIN]
				> 30 µM		> 30 µM	> 30 µM						> 30 µM	> 30 µM	C[n+]1ccccc1/C=N/O [PRALIDOXIME]
	> 30 µM	> 30 µM	> 30 µM	> 30 µM	> 30 µM	> 30 µM	> 30 µM	> 30 µM	> 10 µM		> 30 µM		> 30 µM	> 30 µM	CCCNC(C)C(=O)Nc1ccccc1C (stereo unspecified) [PRILOCAINE]
> 30 µM	> 30 µM	> 30 µM	> 30 µM	> 30 µM	> 30 µM	> 30 µM	> 30 µM	> 30 µM	> 30 µM		> 30 µM		> 30 µM	> 30 µM	CC(C)(C)NC[C@H](O)COc1nsnc1N1CCOCC1 [TIMOLOL]
25 µM	> 10 µM	> 10 µM	> 10 µM	> 10 µM	> 10 µM	> 30 µM	> 30 µM		> 10 µM	> 10 µM			> 30 µM		Cc1cccc(N(C)C(=S)Oc2ccc3ccccc3c2)c1 [TOLNAFTATE]
> 30 µM	> 30 µM	> 30 µM	> 30 µM	> 30 µM	> 30 µM	> 30 µM	> 30 µM	> 30 µM	> 30 µM		> 30 µM		> 30 µM	> 30 µM	CN1[C@@H]2CC[C@H]1C[C@@H](OC(=O)c1c[nH]c3ccccc13)C2 [TROPISETRON]
